Source: patent US8952024B2, “Herbicidal pyrimidone derivatives” (E I du Pont de Nemours and Company, priority 2009, dated 2015)

Assays:
Assay in all cases: Test D pre-/postemergence plant response
Type in all cases: in vivo
Settings in all cases: Postemergence
[1] = tested on: morningglory (pitted morningglory, Ipomoea lacunosa)
In short: (§1)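 Pre + post applications; loam/sand soil; solvent + surfactant vehicle; post-em plants 1- to 4-leaf (2–18 cm); greenhouse 14–21 d; visual score 0 (none) to 100 (full control) vs untreated.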

[2] = tested on: goosegrass (Eleusine indica)
In short: as §1

[3] = tested on: sowthistle (common sowthistle, Sonchus oleraceous)
In short: as §1

[4] = tested on: field bindweed (Convolvulus arvensis)
In short: as §1

[5] = tested on: nutsedge (purple nutsedge, Cyperus rotundus)
In short: as §1

[6] = tested on: signalgrass (broadleaf signalgrass, Brachiaria platyphylla)
In short: as §1

[7] = tested on: sandbur (southern sandbur, Cenchrus echinatus)
In short: as §1

[8] = tested on: green foxtail (Setaria viridis)
In short: as §1

[9] = tested on: bluegrass (annual bluegrass, Poa annua)
In short: as §1

[10] = tested on: dayflower (Virginia (VA) dayflower, Commelina virginica)
In short: as §1

[11] = tested on: large crabgrass (Digitaria sanguinalis)
In short: as §1

[12] = tested on: itchgrass (Rottboellia cochinchinensis)
In short: as §1

[13] = tested on: Surinam grass (Brachiaria decumbens)
In short: as §1

[14] = tested on: quackgrass (Elytrigia repens)
In short: as §1

[15] = tested on: groundsel (common groundsel, Senecio vulgaris)
In short: as §1

[16] = tested on: bermudagrass (Cynodon dactylon)
In short: as §1

[17] = tested on: black mustard (Brassica nigra)
In short: as §1

[18] = tested on: mallow (common mallow, Malva sylvestris)
In short: as §1

[19] = 62 g ai/ha, scale 0 to 100 (0 no effect, 100 complete control)
[20] = 125 g ai/ha, scale 0 to 100 (0 no effect, 100 complete control)
[21] = 250 g ai/ha, scale 0 to 100 (0 no effect, 100 complete control)

Structure (SMILES): CCCCn1c(-c2cc(F)cc(F)c2)ncc(C(=O)C2=C(O)C3CCC(C3)C2=O)c1=O (stereo not drawn) [Compound 245]
- Plant response rating, Morningglory ([1]; 31 g ai/ha, scale 0 to 100): 70
- Plant response rating, Morningglory [1, 19]: 75
- Plant response rating, Morningglory [1, 20]: 80
- Plant response rating, Morningglory [1, 21]: 80
- Plant response rating, Goosegrass ([2]; 31 g ai/ha, scale 0 to 100): 70
- Plant response rating, Goosegrass [2, 19]: 70
- Plant response rating, Goosegrass [2, 20]: 70
- Plant response rating, Goosegrass [2, 21]: 75
- Plant response rating, Sowthistle ([3]; 31 g ai/ha, scale 0 to 100): 95
- Plant response rating, Sowthistle [3, 19]: 95
- Plant response rating, Sowthistle [3, 20]: 95
- Plant response rating, Sowthistle [3, 21]: 95
- Plant response rating, Field Bindweed ([4]; 31 g ai/ha, scale 0 to 100): 50
- Plant response rating, Field Bindweed [4, 19]: 50
- Plant response rating, Field Bindweed [4, 20]: 60
- Plant response rating, Field Bindweed [4, 21]: 70
- Plant response rating, Nutsedge, Purple ([5]; 31 g ai/ha, scale 0 to 100): 5
- Plant response rating, Nutsedge, Purple [5, 19]: 5
- Plant response rating, Nutsedge, Purple [5, 20]: 5
- Plant response rating, Nutsedge, Purple [5, 21]: 20
- Plant response rating, Signalgrass ([6]; 31 g ai/ha, scale 0 to 100): 10
- Plant response rating, Signalgrass [6, 19]: 40
- Plant response rating, Signalgrass [6, 20]: 50
- Plant response rating, Signalgrass [6, 21]: 75
- Plant response rating, Sandbur ([7]; 31 g ai/ha, scale 0 to 100): 65
- Plant response rating, Sandbur [7, 19]: 70
- Plant response rating, Sandbur [7, 20]: 75
- Plant response rating, Sandbur [7, 21]: 75
- Plant response rating, Foxtail, Green ([8]; 31 g ai/ha, scale 0 to 100): 85
- Plant response rating, Foxtail, Green [8, 19]: 90
- Plant response rating, Foxtail, Green [8, 20]: 95
- Plant response rating, Foxtail, Green [8, 21]: 95
- Plant response rating, Bluegrass ([9]; 31 g ai/ha, scale 0 to 100): 5
- Plant response rating, Bluegrass [9, 19]: 20
- Plant response rating, Bluegrass [9, 20]: 35
- Plant response rating, Bluegrass [9, 21]: 35
- Plant response rating, Dayflower, VA ([10]; 31 g ai/ha, scale 0 to 100): 20
- Plant response rating, Dayflower, VA [10, 19]: 35
- Plant response rating, Dayflower, VA [10, 20]: 65
- Plant response rating, Dayflower, VA [10, 21]: 75
- Plant response rating, Crabgrass, Large ([11]; 31 g ai/ha, scale 0 to 100): 70
- Plant response rating, Crabgrass, Large [11, 19]: 70
- Plant response rating, Crabgrass, Large [11, 20]: 75
- Plant response rating, Crabgrass, Large [11, 21]: 75
- Plant response rating, Itchgrass ([12]; 31 g ai/ha, scale 0 to 100): 70
- Plant response rating, Itchgrass [12, 19]: 70
- Plant response rating, Itchgrass [12, 20]: 75
- Plant response rating, Itchgrass [12, 21]: 75
- Plant response rating, Surinam Grass ([13]; 31 g ai/ha, scale 0 to 100): 75
- Plant response rating, Surinam Grass [13, 19]: 75
- Plant response rating, Surinam Grass [13, 20]: 75
- Plant response rating, Surinam Grass [13, 21]: 75
- Plant response rating, Quackgrass ([14]; 31 g ai/ha, scale 0 to 100): 20
- Plant response rating, Quackgrass [14, 19]: 35
- Plant response rating, Quackgrass [14, 20]: 40
- Plant response rating, Quackgrass [14, 21]: 65
- Plant response rating, Groundsel ([15]; 31 g ai/ha, scale 0 to 100): 95
- Plant response rating, Groundsel [15, 19]: 100
- Plant response rating, Groundsel [15, 20]: 100
- Plant response rating, Groundsel [15, 21]: 100
- Plant response rating, Bermudagrass ([16]; 31 g ai/ha, scale 0 to 100): 80
- Plant response rating, Bermudagrass [16, 19]: 80
- Plant response rating, Bermudagrass [16, 20]: 80
- Plant response rating, Bermudagrass [16, 21]: 80
- Plant response rating, Black Mustard ([17]; 31 g ai/ha, scale 0 to 100): 75
- Plant response rating, Black Mustard [17, 19]: 95
- Plant response rating, Black Mustard [17, 20]: 98
- Plant response rating, Black Mustard [17, 21]: 98
- Plant response rating, Mallow ([18]; 31 g ai/ha, scale 0 to 100): 35
- Plant response rating, Mallow [18, 19]: 50
- Plant response rating, Mallow [18, 20]: 50
- Plant response rating, Mallow [18, 21]: 70
